Assay results from patent US5089401A, “Method for the preparation of fructose-containing oligosaccharide” (Ensuiko Sugar Refining Co., Ltd., priority 1990, dated 1992).

Key:
β-fructofuranosidase [1] = molecular target: T1, β-fructofuranosidase (Microbacterium saccharophilum, UniProt Q8VW87); assay: decomposition of saccharides by the β-fructofuranosidase (substrate specificity); type: biochemical, Arthrobacter sp. K-1
T1 construct: K-1 culture; crude supernatant or purified preparation
T1 sequence (Q8VW87 37-578): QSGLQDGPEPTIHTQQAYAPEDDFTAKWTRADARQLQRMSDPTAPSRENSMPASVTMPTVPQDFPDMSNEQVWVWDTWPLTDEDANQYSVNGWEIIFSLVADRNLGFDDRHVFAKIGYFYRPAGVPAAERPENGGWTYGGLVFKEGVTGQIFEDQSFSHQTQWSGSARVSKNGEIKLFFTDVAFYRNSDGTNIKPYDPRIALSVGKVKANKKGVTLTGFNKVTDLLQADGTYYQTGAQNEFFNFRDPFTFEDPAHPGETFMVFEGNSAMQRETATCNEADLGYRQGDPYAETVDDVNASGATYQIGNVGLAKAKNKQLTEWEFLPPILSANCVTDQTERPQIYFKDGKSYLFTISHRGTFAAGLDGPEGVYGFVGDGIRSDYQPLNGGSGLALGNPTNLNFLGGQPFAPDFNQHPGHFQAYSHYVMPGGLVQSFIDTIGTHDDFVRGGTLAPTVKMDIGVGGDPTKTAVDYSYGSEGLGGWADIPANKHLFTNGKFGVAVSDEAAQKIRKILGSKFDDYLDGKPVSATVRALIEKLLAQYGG

β-fructofuranosidase [2] = molecular target: T1, β-fructofuranosidase; type: biochemical, Arthrobacter sp. K-1
bifidus bacteria = conditions: cited from earlier work

Row | Compound | activity of the enzyme in the decomposition of the saccharide (β-fructofuranosidase [1]) | also measured
1 | OC[C@H]1O[C@@](CO)(O[C@H]2O[C@H](CO)[C@@H](O[C@H]3O[C@H](CO)[C@@H](O)[C@H](O)[C@H]3O)[C@H](O)[C@H]2O)[C@@H](O)[C@@H]1O [elrose, maltosyl fructoside] | active in the decomposition | –
2 | OC[C@H]1O[C@@](CO)(O[C@H]2OC[C@@H](O)[C@H](O)[C@H]2O)[C@@H](O)[C@@H]1O [xylsucrose, O-β-D-fructofuranosyl-(2→1)-O-α-D-xylopyranoside] | active in the decomposition | –
3 | copper | – | inhibitive effect of the ion on the enzyme (β-fructofuranosidase [2]): susceptible to the inhibitive effect
4 | OC[C@H]1O[C@@](CO)(O[C@H]2O[C@H](CO)[C@@H](O)[C@H](O)[C@H]2O)[C@@H](O)[C@@H]1O [sucrose] | active in the decomposition | –
5 | mercury | – | inhibitive effect of the ion on the enzyme (β-fructofuranosidase [2]): susceptible to the inhibitive effect
6 | silver | – | inhibitive effect of the ion on the enzyme (β-fructofuranosidase [2]): susceptible to the inhibitive effect
7 | OC[C@H]1O[C@@](CO)(OC[C@@]2(OC[C@@]3(O[C@H]4O[C@H](CO)[C@@H](O)[C@H](O)[C@H]4O)O[C@H](CO)[C@@H](O)[C@@H]3O)O[C@H](CO)[C@@H](O)[C@@H]2O)[C@@H](O)[C@@H]1O [nistose] | hardly exhibits activity | –
8 | OC[C@H]1O[C@@](CO)(OC[C@@]2(O[C@H]3O[C@H](CO)[C@@H](O)[C@H](O)[C@H]3O)O[C@H](CO)[C@@H](O)[C@@H]2O)[C@@H](O)[C@@H]1O [1-kestose] | hardly exhibits activity | –
9 | OC[C@H]1O[C@@](CO)(OC[C@H]2O[C@H](O[C@]3(CO)O[C@H](CO)[C@@H](O)[C@@H]3O)[C@H](O)[C@@H](O)[C@@H]2O)[C@@H](O)[C@@H]1O [neokestose] | active in the decomposition | –
10 | zinc | – | inhibitive effect of the ion on the enzyme (β-fructofuranosidase [2]): susceptible to the inhibitive effect
11 | OC[C@H]1O[C@H](OC[C@H]2O[C@H](OC[C@H]3O[C@H](O[C@]4(CO)O[C@H](CO)[C@@H](O)[C@@H]4O)[C@H](O)[C@@H](O)[C@@H]3O)[C@H](O)[C@@H](O)[C@H]2O)[C@H](O)[C@@H](O)[C@H]1O [stachyose] | active in the decomposition | –
12 | inulobiose | hardly exhibits activity | –
13 | OC[C@H]1O[C@@](CO)(OC[C@H]2O[C@](O)(CO)[C@@H](O)[C@@H]2O)[C@@H](O)[C@@H]1O [levan biose] | hardly exhibits activity | –
14 | OC[C@H]1O[C@H](OC[C@H]2O[C@H](O[C@]3(CO)O[C@H](CO)[C@@H](O)[C@@H]3O)[C@H](O)[C@@H](O)[C@@H]2O)[C@H](O)[C@@H](O)[C@H]1O [raffinose] | active in the decomposition | –
15 | OC[C@H]1O[C@@H](O[C@H]2[C@H](O)[C@@H](O)[C@@H](O[C@]3(CO)O[C@H](CO)[C@@H](O)[C@@H]3O)O[C@@H]2CO)[C@H](O)[C@@H](O)[C@H]1O [lactosucrose, O-β-D-galactopyranosyl-(1→4)-O-α-D-glucopyranosyl-(1→2)-O-β-D-fructofuranoside] | – | activity as a growth factor of bifidus bacteria (bifidus bacteria): has an activity as a growth factor of bifidus bacteria
